Data from patent US11452731B2, “Method of treating and preventing loss of cognition” (ENDORECHERCHE, INC., priority 2009, dated 2022).
Where “and” joins values, the source holds several entries; their conditions need not be identical. Identical values can stand only once.

Experiment: Clinical trial ERC-205: DHEA 50 mg daily versus placebo on hot flushes in postmenopausal women (Example 10)
Format: in vivo
Conditions: for NUMBER OF MODERATE TO SEVERE HOT FLUSHES PER WEEK (MEAN) / WEIGHTED SEVERITY SCORE OF HOT FLUSHES PER WEEK (MEAN) / NUMBER OF ALL HOT FLUSHES PER WEEK (MEAN): 50 mg, strata ≥71 hot flushes per week at screening; for Number of all hot flushes per week, MEAN / Number of moderate to severe hot flushes per week, MEAN / Weighted severity score of hot flushes per week, MEAN / Mean change from baseline: Frequency of all HF / Mean change from baseline: Frequency of moderate-severe HF / Mean change from baseline: Weighted severity score of HF: DHEA 50 mg daily; for number of all hot flushes per week: women having more than 70 mild, moderate plus severe hot flushes
Protocol: Postmenopausal women experiencing moderate or severe hot flushes per week (as determined by a two week diary) were randomized to receive a daily dose of either placebo or 50 mg DHEA. Fifty evaluable participants (25 patients per arm) were treated for four months with a daily assessment of hot flushes recorded in a diary completed by each participant.
Postmenopausal women aged 40 to 70 years with moderate or severe hot flushes per week, as confirmed by a two-week screening hot flush diary were enrolled after signing informed consent. The protocol was approved by the Institutional Review Board (IRB) of Le Centre Hospitalier de l'Université Laval and by Health Canada.
The primary endpoint was the change from Baseline in the weekly frequency of moderate to severe hot flushes at Week 16, after four months of treatment. The objectives also included the change from Baseline in the weekly frequency of all hot flushes and the change from Baseline in the weekly weighted severity score.
The response endpoint is the patient's paper diary which was filled in daily to specify the number and type of hot flushes as follows:
The hot flush diary began as a Screening diary for two weeks prior to randomization whereby patients had to complete the diary daily, recording the number and severity of hot flushes. The patients had to record an average of 50 or more moderate or severe hot flushes per week over the two-week period to be eligible (i.e., at least 100 hot flushes documented on the two week Screening diary).
Once randomized, the patient completed eight, two-week hot flush diaries upon beginning study medication. The diaries had to be filled out on a daily basis. The first diary was completed over the first two weeks and be returned on the two week visit. The second two-week diary was completed over the next two weeks of the first four week treatment period and was returned at the four week visit. At 4, 8, 12 and 16 week visits, two two-week diaries for hot flushes were collected.

[1] = Screening (mean of 2 w), baseline
[2] = women having 71 or more hot flushes per week at screening
[3] = women having between 50 and 70 per week

C[C@]12CC[C@H](O)CC1=CC[C@@H]1[C@@H]2CC[C@]2(C)C(=O)CC[C@@H]12 [DHEA, dehydroepiandrosterone]
NUMBER OF MODERATE TO SEVERE HOT FLUSHES PER WEEK (MEAN) (Week 14): 32.0 | WEIGHTED SEVERITY SCORE OF HOT FLUSHES PER WEEK (MEAN) (Week 14): 96.6 | NUMBER OF ALL HOT FLUSHES PER WEEK (MEAN) (Week 15): 38.8 | NUMBER OF MODERATE TO SEVERE HOT FLUSHES PER WEEK (MEAN) (Week 15): 34.4 | WEIGHTED SEVERITY SCORE OF HOT FLUSHES PER WEEK (MEAN) (Week 15): 103.6 | NUMBER OF ALL HOT FLUSHES PER WEEK (MEAN) (Week 16): 36.3 | NUMBER OF MODERATE TO SEVERE HOT FLUSHES PER WEEK (MEAN) (Week 16): 31.6 | WEIGHTED SEVERITY SCORE OF HOT FLUSHES PER WEEK (MEAN) (Week 16): 95.2 | Number of all hot flushes per week, MEAN [1]: 75.5±4.4 and 75.7 | Number of moderate to severe hot flushes per week, MEAN [1]: 70.7±4.5 and 70.7 | Weighted severity score of hot flushes per week, MEAN [1]: 187.1±13.9 and 187.1 | Number of all hot flushes per week, MEAN (Week 1): 64.2 | Number of moderate to severe hot flushes per week, MEAN (Week 1): 58.6 | Weighted severity score of hot flushes per week, MEAN (Week 1): 156.0 | Number of all hot flushes per week, MEAN (Week 2): 56.4 | Number of moderate to severe hot flushes per week, MEAN (Week 2): 51.0 | Weighted severity score of hot flushes per week, MEAN (Week 2): 137.5 | Number of all hot flushes per week, MEAN (Week 3): 54.6 | Number of moderate to severe hot flushes per week, MEAN (Week 3): 49.1 | Weighted severity score of hot flushes per week, MEAN (Week 3): 132.5 | Mean change from baseline: Frequency of all HF (Week 4): −20.4 | Mean change from baseline: Frequency of moderate-severe HF (Week 4): −20.6 | Mean change from baseline: Weighted severity score of HF (Week 4): −51.4 | Number of all hot flushes per week, MEAN (Week 4): 55.3±5.8 and 55.3 | Number of moderate to severe hot flushes per week, MEAN (Week 4): 50.1±5.7 and 50.1 | Weighted severity score of hot flushes per week, MEAN (Week 4): 135.7 | Number of all hot flushes per week, MEAN (Week 5): 49.8 | Number of moderate to severe hot flushes per week, MEAN (Week 5): 44.4 | Weighted severity score of hot flushes per week, MEAN (Week 5): 120.9 | Number of all hot flushes per week, MEAN (Week 6): 47.9 | Number of moderate to severe hot flushes per week, MEAN (Week 6): 43.0 | Weighted severity score of hot flushes per week, MEAN (Week 6): 115.2 | Number of all hot flushes per week, MEAN (Week 7): 44.5 | Number of moderate to severe hot flushes per week, MEAN (Week 7): 39.6 | Weighted severity score of hot flushes per week, MEAN (Week 7): 108.3 | Mean change from baseline: Frequency of all HF (Week 8): −31.0 | Mean change from baseline: Frequency of moderate-severe HF (Week 8): −30.1 | Mean change from baseline: Weighted severity score of HF (Week 8): −76.9 | Number of all hot flushes per week, MEAN (Week 8): 44.7±6.3 and 44.7 | Number of moderate to severe hot flushes per week, MEAN (Week 8): 40.2±6.1 and 40.2 | Weighted severity score of hot flushes per week, MEAN (Week 8): 109.4 | Number of all hot flushes per week, MEAN (Week 9): 44.3 | Number of moderate to severe hot flushes per week, MEAN (Week 9): 39.6 | Weighted severity score of hot flushes per week, MEAN (Week 9): 106.5 | Number of all hot flushes per week, MEAN (Week 10): 43.1 | Number of moderate to severe hot flushes per week, MEAN (Week 10): 38.6 | Weighted severity score of hot flushes per week, MEAN (Week 10): 104.5 | Number of all hot flushes per week, MEAN (Week 11): 40.9 | Number of moderate to severe hot flushes per week, MEAN (Week 11): 36.0 | Weighted severity score of hot flushes per week, MEAN (Week 11): 98.2 | Mean change from baseline: Frequency of all HF (Week 12): −36.2 | Mean change from baseline: Frequency of moderate-severe HF (Week 12): −35.6 | Mean change from baseline: Weighted severity score of HF (Week 12): −93.6 | Number of all hot flushes per week, MEAN (Week 12): 39.5±5.9 and 39.5 | Number of moderate to severe hot flushes per week, MEAN (Week 12): 34.7±5.8 and 34.7 | Weighted severity score of hot flushes per week, MEAN (Week 12): 92.7 | Number of all hot flushes per week, MEAN (Week 13): 37.5 | Number of moderate to severe hot flushes per week, MEAN (Week 13): 33.2 | Weighted severity score of hot flushes per week, MEAN (Week 13): 90.1 | Number of all hot flushes per week, MEAN (Week 14): 37.6 | Number of moderate to severe hot flushes per week, MEAN (Week 14): 33.3 | Weighted severity score of hot flushes per week, MEAN (Week 14): 90.9 | Number of all hot flushes per week, MEAN (Week 15): 37.5 | Number of moderate to severe hot flushes per week, MEAN (Week 15): 34.0 | Weighted severity score of hot flushes per week, MEAN (Week 15): 91.8 | Mean change from baseline: Frequency of all HF (Week 16): −39.8 | Mean change from baseline: Frequency of moderate-severe HF (Week 16): −38.1 | Mean change from baseline: Weighted severity score of HF (Week 16): −99.1 | Number of all hot flushes per week, MEAN (Week 16): 36.0±5.7 and 36.0 | Number of moderate to severe hot flushes per week, MEAN (Week 16): 32.2±5.8 and 32.2 | Weighted severity score of hot flushes per week, MEAN (Week 16): 87.2±15.8 and 87.2 | reduction of the weighted severity score (all women, week 16 (Table 18)): 99.1±15.6 | decrease in weighted severity score (at 16 weeks): 53.4% | higher efficacy of DHEA than placebo on weighted severity score (at 16 weeks): 3.0 fold | decrease in frequency of all hot flushes (screening to week 16): 52.4% | decrease in number of moderate to severe hot flushes (screening to week 16): 54.5% | decrease in moderate to severe hot flushes [2]: 64.3% | greater inhibition by DHEA than placebo [2]: 65% | mean number of moderate to severe hot flushes per week (women having 71 or more hot flushes per week at screening, after DHEA treatment): 31.6±11.6 | mean number of moderate to severe hot flushes per week (women having 71 or more hot flushes per week at screening, screening value): 88.5±7.1 | decrease in weighted severity score (women having between 50 and 70 hot flushes per week): 43.5% | weighted severity score (women having between 50 and 70 hot flushes per week, screening): 144.3±6.7 | weighted severity score (women having between 50 and 70 hot flushes per week, week 16): 81.6±13.6 | decrease in moderate to severe hot flushes [3]: 43.3% | inhibition by DHEA over the placebo effect [3]: 43% | number of moderate to severe hot flushes per week (women having between 50 and 70 per week, prescreening): 56.7±1.3 | number of moderate to severe hot flushes per week (women having between 50 and 70 per week, week 6 as printed): 32.7±6.2 | decrease in number of all hot flushes (women having more than 70 hot flushes): 60% | decrease in weighted severity score (women having more than 70 hot flushes per week): 61.6% | weighted severity score (women having more than 70 hot flushes per week, screening): 241.6±21.1 | weighted severity score (women having more than 70 hot flushes per week, week 16): 95.2±34.3 | number of all hot flushes per week (prescreening): 91.0±7.0 | number of all hot flushes per week (week 16): 36.3±11.5 | greater efficacy of DHEA than placebo (women having the largest number of hot flushes of all degrees of severity): 50%
